Test results reported in ChEMBL document CHEMBL1201862, “PubChem BioAssay data set” (2004).
The source made the active and inactive calls.

Columns and labels:
[1] = miR-122 activators in hepatoma reporter cells, dose response, cell-based, Huh7 psiCHECK-miR122, Renilla luciferase, cherry-picked (AID 651956); type: functional;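 also: huh7 hepatoma cells stably carrying a psiCHECK-2 miR-122 sensor plasmid; renilla luciferase signal reporting endogenous miR-122 activity after 48 h compound exposure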
Cytochrome P450 3A4 = Cytochrome P450 3A4 (Homo sapiens, UniProt P08684);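 also: CYP3A4 tested as one member of a cytochrome P450 panel screen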
Cytochrome P450 3A4, sequence (P08684 whole entry): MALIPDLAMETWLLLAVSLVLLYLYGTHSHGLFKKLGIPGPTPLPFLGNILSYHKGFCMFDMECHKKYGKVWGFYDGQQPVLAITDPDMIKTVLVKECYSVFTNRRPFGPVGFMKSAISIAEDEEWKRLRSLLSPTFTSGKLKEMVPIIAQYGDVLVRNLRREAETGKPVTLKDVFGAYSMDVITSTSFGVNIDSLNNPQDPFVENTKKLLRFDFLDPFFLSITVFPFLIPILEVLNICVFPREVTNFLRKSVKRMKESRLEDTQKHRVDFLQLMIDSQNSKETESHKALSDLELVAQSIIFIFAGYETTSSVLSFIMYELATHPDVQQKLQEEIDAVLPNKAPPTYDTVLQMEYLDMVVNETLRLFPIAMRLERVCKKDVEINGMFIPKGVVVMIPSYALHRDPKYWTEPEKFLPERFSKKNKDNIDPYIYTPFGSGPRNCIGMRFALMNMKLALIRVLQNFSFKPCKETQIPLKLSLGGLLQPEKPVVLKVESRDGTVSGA

Cytochrome P450 2C19 = Cytochrome P450 2C19 (Homo sapiens, UniProt P33261); experiment: Cytochrome panel assay with activity outcomes. Panel member name: p450-cyp2c19 Compounds with AC50 equal or less than 10 uM are considered active; type: functional; conditions: read-out: AC50
Cytochrome P450 2C19, sequence (P33261 whole entry): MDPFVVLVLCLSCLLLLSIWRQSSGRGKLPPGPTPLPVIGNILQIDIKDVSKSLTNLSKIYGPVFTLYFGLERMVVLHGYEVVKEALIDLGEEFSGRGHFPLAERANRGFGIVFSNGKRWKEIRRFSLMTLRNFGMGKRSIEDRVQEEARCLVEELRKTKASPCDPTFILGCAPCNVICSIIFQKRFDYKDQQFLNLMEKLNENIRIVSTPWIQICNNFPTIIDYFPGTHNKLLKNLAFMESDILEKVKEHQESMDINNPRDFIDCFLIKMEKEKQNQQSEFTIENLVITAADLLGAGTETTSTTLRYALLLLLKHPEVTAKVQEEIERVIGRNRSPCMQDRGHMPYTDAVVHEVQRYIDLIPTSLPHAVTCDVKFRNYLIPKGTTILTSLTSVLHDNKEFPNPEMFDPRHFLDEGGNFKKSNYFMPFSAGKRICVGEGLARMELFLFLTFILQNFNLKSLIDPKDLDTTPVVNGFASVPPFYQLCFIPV

Cytochrome P450 2C9 = Cytochrome P450 2C9 (Homo sapiens, UniProt P11712)
Cytochrome P450 2C9, sequence (P11712 whole entry): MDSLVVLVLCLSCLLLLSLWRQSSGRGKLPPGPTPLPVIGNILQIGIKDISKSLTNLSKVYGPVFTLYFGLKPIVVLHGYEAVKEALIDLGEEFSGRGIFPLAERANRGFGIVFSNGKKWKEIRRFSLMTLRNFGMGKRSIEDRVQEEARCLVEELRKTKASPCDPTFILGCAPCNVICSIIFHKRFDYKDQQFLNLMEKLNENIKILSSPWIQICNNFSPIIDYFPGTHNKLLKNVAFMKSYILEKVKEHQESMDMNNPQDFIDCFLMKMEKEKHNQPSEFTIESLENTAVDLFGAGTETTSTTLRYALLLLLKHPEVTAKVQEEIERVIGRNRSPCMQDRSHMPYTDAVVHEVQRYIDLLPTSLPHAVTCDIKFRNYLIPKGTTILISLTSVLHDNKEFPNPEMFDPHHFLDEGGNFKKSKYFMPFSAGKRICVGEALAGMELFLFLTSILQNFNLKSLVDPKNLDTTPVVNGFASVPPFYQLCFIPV

[2] = HepG2 cell cytotoxicity, dose response, cytotoxicity control, cherry-picked samples (AID 1159577); type: functional, cell-based
[3] = P. falciparum Dd2 growth inhibitors, dose response, SYBR Green, cherry-picked samples (AID 1159567); type: functional, cell-based
cells = type: functional
[4] = biological target: Ras and Rab interactor 1/Tyrosine-protein kinase ABL1 (Homo sapiens, UniProt P00519+Q13671); type: functional;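 also: biochemical TR-FRET dose-response test measuring inhibition of binding between Rin1 and Abl proteins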
Ras and Rab interactor 1/Tyrosine-protein kinase ABL1, sequence (P00519 whole entry): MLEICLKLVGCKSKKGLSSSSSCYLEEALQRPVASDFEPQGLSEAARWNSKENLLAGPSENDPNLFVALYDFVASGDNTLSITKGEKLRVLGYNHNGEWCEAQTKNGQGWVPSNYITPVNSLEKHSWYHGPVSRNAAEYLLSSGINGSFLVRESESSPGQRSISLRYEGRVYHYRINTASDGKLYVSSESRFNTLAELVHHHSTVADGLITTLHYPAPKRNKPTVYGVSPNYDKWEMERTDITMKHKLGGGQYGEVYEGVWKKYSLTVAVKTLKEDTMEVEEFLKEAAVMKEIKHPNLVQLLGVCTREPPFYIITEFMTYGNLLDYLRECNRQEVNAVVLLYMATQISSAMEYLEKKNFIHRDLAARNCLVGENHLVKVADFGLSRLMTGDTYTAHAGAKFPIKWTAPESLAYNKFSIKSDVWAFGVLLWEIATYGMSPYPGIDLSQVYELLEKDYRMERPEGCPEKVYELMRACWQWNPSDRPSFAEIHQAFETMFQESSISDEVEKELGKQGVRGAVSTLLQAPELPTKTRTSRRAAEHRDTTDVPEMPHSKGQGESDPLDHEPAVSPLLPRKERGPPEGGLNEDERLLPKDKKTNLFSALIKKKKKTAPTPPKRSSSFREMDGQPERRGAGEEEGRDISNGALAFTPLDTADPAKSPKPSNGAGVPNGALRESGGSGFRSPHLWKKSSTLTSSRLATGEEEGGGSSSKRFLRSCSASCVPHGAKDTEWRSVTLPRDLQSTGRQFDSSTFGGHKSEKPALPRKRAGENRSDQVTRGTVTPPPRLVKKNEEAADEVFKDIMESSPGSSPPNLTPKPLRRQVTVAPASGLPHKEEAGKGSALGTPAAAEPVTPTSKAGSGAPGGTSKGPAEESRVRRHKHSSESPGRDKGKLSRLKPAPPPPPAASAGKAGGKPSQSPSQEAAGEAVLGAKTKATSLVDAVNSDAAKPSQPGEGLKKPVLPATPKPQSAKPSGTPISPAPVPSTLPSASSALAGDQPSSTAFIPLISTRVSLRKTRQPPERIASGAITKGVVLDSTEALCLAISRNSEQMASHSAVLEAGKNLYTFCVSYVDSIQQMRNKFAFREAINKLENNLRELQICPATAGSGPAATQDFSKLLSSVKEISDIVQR
Ras and Rab interactor 1/Tyrosine-protein kinase ABL1, sequence (Q13671 whole entry): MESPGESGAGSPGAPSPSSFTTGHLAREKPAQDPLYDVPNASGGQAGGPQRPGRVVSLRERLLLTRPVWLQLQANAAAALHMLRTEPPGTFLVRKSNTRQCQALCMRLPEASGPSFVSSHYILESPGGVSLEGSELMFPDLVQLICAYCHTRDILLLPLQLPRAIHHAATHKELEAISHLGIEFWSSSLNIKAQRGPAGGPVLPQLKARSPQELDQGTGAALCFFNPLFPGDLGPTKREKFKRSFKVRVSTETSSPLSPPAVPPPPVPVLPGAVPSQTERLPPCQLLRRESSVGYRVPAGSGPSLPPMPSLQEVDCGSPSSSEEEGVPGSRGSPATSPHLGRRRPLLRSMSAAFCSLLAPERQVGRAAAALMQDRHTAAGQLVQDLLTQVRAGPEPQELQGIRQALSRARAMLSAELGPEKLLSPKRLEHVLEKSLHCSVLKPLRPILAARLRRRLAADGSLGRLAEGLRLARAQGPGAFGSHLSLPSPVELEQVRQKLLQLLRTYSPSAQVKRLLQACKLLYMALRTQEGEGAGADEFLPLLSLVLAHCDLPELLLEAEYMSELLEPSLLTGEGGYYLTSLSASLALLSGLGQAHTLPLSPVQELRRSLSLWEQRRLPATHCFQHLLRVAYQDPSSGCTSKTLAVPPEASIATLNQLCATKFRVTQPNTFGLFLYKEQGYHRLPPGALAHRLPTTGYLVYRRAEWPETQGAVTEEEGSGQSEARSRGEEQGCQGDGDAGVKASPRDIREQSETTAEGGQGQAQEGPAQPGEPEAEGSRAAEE

[5] = A Cell Based Secondary Assay To Explore Cytotoxicity of Compounds that Sensitize Mycobacterium Tuberculosis to Beta-Lactam Antibiotics.; type: functional
[6] = off-target signal loss in HeLa-CEM21 co-culture – HeLa F-luc CTL cells, cherry-picked, counter-screen for HIV-1 Env fusion inhibitor project, dose response (AID 652040); type: functional, cell-based;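 also: potency for signal decrease marking cytotoxic or nonspecific inhibition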
[7] = CEM21 lymphoblast cell cytotoxicity, dose response, cytotoxicity control for viral fusion inhibitor project, CellTiter-Glo luminescence, cherry-picked (AID 652042); type: functional, cell-based;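 also: potency for signal decrease meaning cytotoxicity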
[8] = inhibitors of HIV Env-driven cell fusion, dose response, cherry-pick (AID 652057); type: functional, cell-based
[9] = cytotoxicity in KRAS-transformed pancreatic duct cells, primary screen, cell-based, fluorescence, HTS (AID 431); type: functional; conditions: Homo sapiens;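 also: cell line used: HPDE-C7K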
[10] = cytotoxicity in HPDE-C7 cells, cell-based, fluorescence, HTS (AID 430); type: functional; conditions: Homo sapiens
Bcl-2-related protein A1 [11] = biological target: T1, Bcl-2-related protein A1 (Mus musculus, UniProt Q07440); experiment: Bfl-1 inhibitors blocking BH3 peptide binding, confirmation, biochemical, TR-FRET, mouse Bfl-1 (AID 621);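 also: TR-FRET binding of GST-Bfl-1 to FITC-labelled Bid peptide via terbium antibody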
T1 sequence (Q07440 whole entry): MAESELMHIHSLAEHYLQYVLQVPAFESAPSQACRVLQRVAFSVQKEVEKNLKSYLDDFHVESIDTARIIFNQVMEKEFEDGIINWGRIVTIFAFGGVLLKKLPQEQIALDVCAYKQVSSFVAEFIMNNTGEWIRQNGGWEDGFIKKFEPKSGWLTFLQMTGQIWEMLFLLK

Bcl-2-related protein A1 [12] = biological target: T1, Bcl-2-related protein A1; experiment: Bfl-1 binding inhibitors, SAR follow-up, biochemical, fluorescence polarization (AID 1070)
[13] = biological target: Glyceraldehyde-3-phosphate dehydrogenase (Homo sapiens, UniProt P04406)
Glyceraldehyde-3-phosphate dehydrogenase, sequence (P04406 whole entry): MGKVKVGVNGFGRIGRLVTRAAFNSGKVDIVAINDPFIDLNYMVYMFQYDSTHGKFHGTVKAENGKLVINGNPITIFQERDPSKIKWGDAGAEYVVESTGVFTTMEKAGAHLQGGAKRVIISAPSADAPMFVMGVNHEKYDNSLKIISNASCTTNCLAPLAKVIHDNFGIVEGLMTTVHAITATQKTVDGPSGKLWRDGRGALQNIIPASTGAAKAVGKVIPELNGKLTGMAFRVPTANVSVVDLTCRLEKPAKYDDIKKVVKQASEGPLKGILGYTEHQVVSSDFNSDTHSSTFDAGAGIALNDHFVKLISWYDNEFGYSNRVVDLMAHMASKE

[14] = MC4R antagonists, dose response, counter-screen for LGR2 antagonist project, cell-based, plate reader, cherry pick (AID 743444); type: functional;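 also: transfected HEK 293 cells stimulated with alpha-MSH peptide; potency of inhibitors of the alpha-MSH evoked signal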
[15] = LGR2 antagonists, dose response, cell-based, HEK293, CRE-luciferase reporter, cherry pick, set 2 (AID 743343); type: functional;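 also: transfected cells were stimulated with diluted bursicon conditioned medium after compound addition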

Structure (SMILES): C[C@H](CO)N1C[C@H](C)[C@H](CN(C)C(=O)Nc2ccc3c(c2)OCO3)Oc2ncc(-c3cccc(C(F)(F)F)c3)cc2C1=O
- AC50 [1]: 14.1 µM (active)

Structure (SMILES): O=C(OC1CCN(c2ncc(C(F)(F)F)cc2Cl)CC1)c1ccccc1
- AC50 (Cytochrome P450 3A4): inconclusive

Structure (SMILES): CSC1=C(C#N)C(c2ccccc2Cl)C2=C(O)c3ccccc3C2=N1 (stereo unspecified)
- AC50 (Cytochrome P450 3A4): inconclusive

Structure (SMILES): CCC(=O)N1CCN(c2ccc(NC(=O)c3cccs3)cc2)CC1
- AC50 (Cytochrome P450 3A4): inconclusive
- AC50 (Cytochrome P450 2C19): 0.501 µM (inconclusive)
- AC50 (Cytochrome P450 2C9): inconclusive

Structure (SMILES): COc1ccc(C#Cc2ccc([C@@H]3[C@@H](CO)N4CCCCN(C(=O)Nc5ccccc5)C[C@H]34)cc2)cc1
- AC50 [2]: 11.4 µM (active)
- AC50 [1]: 6.46 µM (active)
- AC50 [3]: 1.29 µM (active)

Structure (SMILES): COC(=O)c1ccc(CSc2nnc(-c3ccncc3)o2)o1
- IC50 (cells): 39.6 µM (active)
- IC50 [4]: 11 µM (inactive)

Structure (SMILES): CCCCN1C(=O)N(C)C2NC(=O)NC21 (stereo unspecified)
- IC50 [4]: 3 µM (active)

Structure (SMILES): COc1ccc(-n2cc(-c3ccccc3)c3c(NN4CCOCC4)ncnc32)cc1
- CC50 [5]: > 40 µM (active)

Structure (SMILES): CCN(CC)c1ccc(/C=N/N2C(C)CCCC2C)c(O)c1 (stereo unspecified)
- AC50 [6]: > 70 µM (inactive)
- AC50 [7]: 48.3 µM (active)
- AC50 [8]: 2.22 µM (active)

Structure (SMILES): N#CC1=C(N)NC(SCc2ccc(Cl)cc2)=C(C#N)C12CCCCC2
- EC50 [9]: 6.43 µM (active)
- EC50 [10]: 8.84 µM (active)

Structure (SMILES): O=C1C(Cl)=C(Cl)C(=O)N1c1ccccc1Cl
- IC50 (Bcl-2-related protein A1 [11]): 3.64 µM (active)
- IC50 (Bcl-2-related protein A1 [12]): 10.2 µM (active)
- IC50 [13]: > 100 µM (not active)

Structure (SMILES): Cc1ccccc1S(=O)(=O)N1[C@H](C#N)[C@H](c2ccc(C#CC3CCCCC3)cc2)[C@H]1CO
- AC50 [14]: 13 µM (active)
- AC50 [15]: 10.7 µM (active)

Structure (SMILES): Cc1ccc(NC2=C(Cl)C(=O)N(c3ccc(C)cc3)C2=O)cc1
- IC50 (Bcl-2-related protein A1 [11]): 2.54 µM (active)
- IC50 (Bcl-2-related protein A1 [12]): 1.7 µM (active)
- IC50 [13]: > 100 µM (not active)
